The text below walks through data of PubChem BioAssay (NCI).

Each structure is given as a SMILES string.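 Exposure lasted 48 hours, with cells grown in 96-well plates and compounds tested at five concentrations. TGI: concentration producing complete growth inhibition.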

The subject of the first assay is SK-OV-3 ovarian. Kind of assay: NCI anticancer screen, dose series, 48 h.
As to `O=C1CC2(C[C@@H]3CCCCCCCCC[C@@H](C3)C2)N1` (some centres undefined), the TGI was 28.4 µM.
As to `O=C1CC2C=CC(O)C(C1)C2` (centres undefined), the TGI was greater than 100 µM.
Same read-out and setting: with `Cc1sc2nc3n(c(=O)c2c1C)N=CN(c1ccccc1)C3` the figure was greater than 100 µM; with `CC(C)C(Sc1nc(-c2ccccc2)c(-c2ccccc2)[nH]1)C(=O)NNC(=S)Nc1ccccc1` (centres undefined), 45.3 µM.
On the same count and under the same terms, with `COC1O[C@H]2CCN(C(=O)OCc3ccccc3)[C@H]2[C@H]1OCc1ccccc1` (some centres undefined) the figure was 55.3 µM; with `CC(C)(C)OC(=O)NC(C)(C)C(=O)NCCC(=O)O`, greater than 100 µM.
On to `COc1ccc(C2C(Cl)C(=O)N2NC(=O)c2ccc(NC(C)=O)cc2)cc1` (centres undefined), for which the TGI is greater than 100 µM.
For `c1ccc([P+](CCNCCNCC[P+](c2ccccc2)(c2ccccc2)c2ccccc2)(c2ccccc2)c2ccccc2)cc1`, the TGI is greater than 100 µM.
`c1ccc(C[P+]2(c3ccccc3)c3ccccc3-c3ccccc32)cc1` registered a TGI greater than 100 µM.
The compound `Cc1c(Cl)cccc1NC(=O)C(=O)C1C(=O)CC(C)(C)CC1=O` returned a TGI greater than 100 µM.
In turn, `O=C1O[C@@H](c2ccccc2)C[C@@H]1CN1CCOCC1` yielded a TGI greater than 100 µM.
Same read-out and setting: the same measure for `COc1ccc2nc(-c3ccc(OCc4ccccc4)cc3)ccc2c1`: greater than 100 µM.
The same measure, in the same setting: the same measure for `CCOc1ccc(N/C(=C(/C(Cl)=C(/Cl)NCCN)[N+](=O)[O-])n2nnc3ccccc32)cc1`: greater than 100 µM.
As to `N#C/C(=C\NC(=S)Nc1ccc(S(=O)(=O)Nc2ccccn2)cc1)C(N)=O`, the TGI was greater than 100 µM.
For `COC1(C)CC2N(C(=O)c3ccccc3)N=C(c3ccccc3)CC2(C)O1` (centres undefined), the TGI is greater than 100 µM.
Compound `CC(=O)NC1C(OCc2ccccc2)OC(CO)C(O)C1OCC(=O)N[C@@H](C)C(=O)N[C@H](CCC(=O)NCCNCCNc1c2ccccc2nc2cccc([N+](=O)[O-])c12)C(N)=O` (some centres undefined) showed a TGI greater than 100 µM.
Compound `c1cc2nnc1SCCSCCSc1ccc(nn1)SCCSCCS2` showed a TGI greater than 100 µM.
Same read-out and setting: with `O=C(Cc1nc2ccc(C(=O)c3ccccc3)cc2[nH]c1=O)C(=O)Nc1ccc(Br)cc1` the figure was greater than 100 µM; with `Nc1ccccc1Nc1ccccc1C(=O)[O-].Nc1ccccc1Nc1ccccc1C(=O)[O-].[Cu+2]`, greater than 100 µM.
On the same count and under the same terms, the same measure for `Cc1ccccc1C1OC1C(=O)c1ccccc1N` (centres undefined): greater than 100 µM; for `CCOC(=O)C(OCC1CC=CCC1)Sc1ccccc1` (centres undefined): greater than 100 µM.

For a further assay, the system named is SR leukemia. Description: NCI anticancer screen, dose series, 48 h.
`Cc1cn(C2C=CC(COP(=O)(OCC3=CC(=O)c4ccccc4C3=O)N(C)CCCCCl)O2)c(=O)[nH]c1=O` (centres undefined) yielded a TGI of 2.05 µM.
`C[N+](C)(C)CC(=O)N/N=c1\cc(C(=O)Nc2ccc(N=O)cc2C#N)oc2cc(O)ccc12` yielded a TGI greater than 100 µM.
Same read-out and setting: the same measure for `N#CCCN(c1ccc(C=Nc2cccc([N+](=O)[O-])c2)cc1)S(=O)(=O)c1ccccc1`: greater than 100 µM.
In the case of `COc1ccc(/C(=C/n2ccnc2)C(=O)c2ccc(OC)c(OC)c2)cc1`, the TGI was greater than 100 µM.
With `O=C1CC2(C[C@@H]3CCCCCCCCC[C@@H](C3)C2)N1` (some centres undefined), the TGI turned out to be 30.7 µM.
The same measure, in the same setting: with `O=C1CC2C=CC(O)C(C1)C2` (centres undefined) the figure was greater than 100 µM; with `Cc1sc2nc3n(c(=O)c2c1C)N=CN(c1ccccc1)C3`, greater than 100 µM.
Same read-out and setting: with `CC(C)C(Sc1nc(-c2ccccc2)c(-c2ccccc2)[nH]1)C(=O)NNC(=S)Nc1ccccc1` (centres undefined) the figure was 64.2 µM; with `COC1O[C@H]2CCN(C(=O)OCc3ccccc3)[C@H]2[C@H]1OCc1ccccc1` (some centres undefined), 99.7 µM.
Compound `Cc1c(Cl)cccc1NC(=O)C(=O)C1C(=O)CC(C)(C)CC1=O` returned a TGI greater than 100 µM.
On the same count and under the same terms, the same measure for `COc1ccc2nc(-c3ccc(OCc4ccccc4)cc3)ccc2c1`: greater than 100 µM; for `N#C/C(=C\NC(=S)Nc1ccc(S(=O)(=O)Nc2ccccn2)cc1)C(N)=O`: greater than 100 µM; for `CC(=O)NC1C(OCc2ccccc2)OC(CO)C(O)C1OCC(=O)N[C@@H](C)C(=O)N[C@H](CCC(=O)NCCNCCNc1c2ccccc2nc2cccc([N+](=O)[O-])c12)C(N)=O` (some centres undefined): greater than 100 µM.
Still for that read-out and setting: with `c1cc2nnc1SCCSCCSc1ccc(nn1)SCCSCCS2` the figure was greater than 100 µM; with `Cc1ccccc1C1OC1C(=O)c1ccccc1N` (centres undefined), greater than 100 µM; with `CCOC(=O)C(OCC1CC=CCC1)Sc1ccccc1` (centres undefined), greater than 100 µM.

A further assay deals with UACC-62 melanoma. Description: NCI anticancer screen, dose series, 48 h.
Compound `CC(C)CC(N)C(=O)OCN1C(=O)C2C3C=CC(C2C1=O)C1C2C(=O)N(COC(=O)C(N)CC(C)C)C(=O)C2C31` (centres undefined) registered a TGI greater than 100 µM.
`COC(=O)c1cc(CC(C)C)c2c(c1)[nH]c1ccccc12` displayed a TGI greater than 100 µM.
The same measure, in the same setting: with `Cc1cn(C2C=CC(COP(=O)(OCC3=CC(=O)c4ccccc4C3=O)N(C)CCCCCl)O2)c(=O)[nH]c1=O` (centres undefined) the figure was 14.3 µM.
The same measure, in the same setting: the same measure for `C[N+](C)(C)CC(=O)N/N=c1\cc(C(=O)Nc2ccc(N=O)cc2C#N)oc2cc(O)ccc12`: greater than 100 µM; for `N#CCCN(c1ccc(C=Nc2cccc([N+](=O)[O-])c2)cc1)S(=O)(=O)c1ccccc1`: greater than 100 µM; for `COc1ccc(/C(=C/n2ccnc2)C(=O)c2ccc(OC)c(OC)c2)cc1`: greater than 100 µM.
Consider `O=C1CC2(C[C@@H]3CCCCCCCCC[C@@H](C3)C2)N1` (some centres undefined), for which the TGI worked out at 30.3 µM.
Still for that read-out and setting: with `O=C1CC2C=CC(O)C(C1)C2` (centres undefined) the figure was greater than 100 µM; with `Cc1sc2nc3n(c(=O)c2c1C)N=CN(c1ccccc1)C3`, greater than 100 µM.
As for `CC(C)C(Sc1nc(-c2ccccc2)c(-c2ccccc2)[nH]1)C(=O)NNC(=S)Nc1ccccc1` (centres undefined), the TGI worked out at 12.4 µM.
In the case of `COC1O[C@H]2CCN(C(=O)OCc3ccccc3)[C@H]2[C@H]1OCc1ccccc1` (some centres undefined), the TGI is 64.4 µM.
In turn, `CC(C)(C)OC(=O)NC(C)(C)C(=O)NCCC(=O)O` returned a TGI greater than 100 µM.
Same read-out and setting: with `COc1ccc(C2C(Cl)C(=O)N2NC(=O)c2ccc(NC(C)=O)cc2)cc1` (centres undefined) the figure was greater than 100 µM; with `c1ccc([P+](CCNCCNCC[P+](c2ccccc2)(c2ccccc2)c2ccccc2)(c2ccccc2)c2ccccc2)cc1`, greater than 100 µM; with `c1ccc(C[P+]2(c3ccccc3)c3ccccc3-c3ccccc32)cc1`, greater than 100 µM.
On the same count and under the same terms, the same measure for `Cc1c(Cl)cccc1NC(=O)C(=O)C1C(=O)CC(C)(C)CC1=O`: greater than 100 µM.
Same read-out and setting: the same measure for `O=C1O[C@@H](c2ccccc2)C[C@@H]1CN1CCOCC1`: greater than 100 µM; for `COc1ccc2nc(-c3ccc(OCc4ccccc4)cc3)ccc2c1`: greater than 100 µM.
Take `CCOc1ccc(N/C(=C(/C(Cl)=C(/Cl)NCCN)[N+](=O)[O-])n2nnc3ccccc32)cc1`: the TGI is greater than 100 µM.
On the same count and under the same terms, the same measure for `N#C/C(=C\NC(=S)Nc1ccc(S(=O)(=O)Nc2ccccn2)cc1)C(N)=O`: greater than 100 µM; for `COC1(C)CC2N(C(=O)c3ccccc3)N=C(c3ccccc3)CC2(C)O1` (centres undefined): greater than 100 µM.
On the same count and under the same terms, with `CC(=O)NC1C(OCc2ccccc2)OC(CO)C(O)C1OCC(=O)N[C@@H](C)C(=O)N[C@H](CCC(=O)NCCNCCNc1c2ccccc2nc2cccc([N+](=O)[O-])c12)C(N)=O` (some centres undefined) the figure was 35.2 µM; with `c1cc2nnc1SCCSCCSc1ccc(nn1)SCCSCCS2`, greater than 100 µM; with `O=C(Cc1nc2ccc(C(=O)c3ccccc3)cc2[nH]c1=O)C(=O)Nc1ccc(Br)cc1`, greater than 100 µM.
Still for that read-out and setting: the same measure for `Nc1ccccc1Nc1ccccc1C(=O)[O-].Nc1ccccc1Nc1ccccc1C(=O)[O-].[Cu+2]`: 44.3 µM; for `Cc1ccccc1C1OC1C(=O)c1ccccc1N` (centres undefined): greater than 100 µM.
`CCOC(=O)C(OCC1CC=CCC1)Sc1ccccc1` (centres undefined) registered a TGI greater than 100 µM.
